Results from patent US8071540B2, “Virus derived antimicrobial peptides” (priority 2007, dated 2011).
Where no end group is shown, it is not given here.

Assays:
C. lusitaniae = test: In vitro fungal killing assay; settings: 6 μM, RPMI 1640, 37° C.; all isolates
Staphylococcus aureus = test: Bacterial lysis (broth dilution) assay, MBC; type: cell-based; settings: 99.9% killing
Description: The assays for growth inhibition of a microbial target can be used to derive a minimum bactericidal concentration (MBC) value for the peptide, i.e., the concentration of peptide required to kill 99.9% (3-log decrease) of the microbial sample being tested. This value is well known to those in the art as representative of the effectiveness of a particular antimicrobial agent (e.g., an antibiotic) against a particular organism or group of organisms. In assays to detect the MBC of a peptide, growth inhibition of a bacterial population also can be measured with reference to the number of colony forming units (cfu) after exposure to a peptide relative to a control experiment without a peptide.
Bacterial lysis assay. Bacterial lysis assays were conducted in a manner similar to that described previously (Lehrer, R. I., M. E. Selsted, D. Szklarek, and F. J. 1983. Infect. Immun. 42: 10-4, 1983; Miller, M. A., R. F. Garry, J. M. Jaynes, and R. C. Montelaro, AIDS Res Hum Retroviruses 7:511-519, 1991). Bacterial suspensions were cultured in Luria-Bertani Broth to mid-log growth phase and washed by two cycles of centrifugation and suspension in 10 mM phosphate buffer. The Abs600 of the suspension was adjusted with 10 mM phosphate buffer such that, upon dilution, 5-10×10^5 cfu/mL would be treated in the assay. Bacteria were incubated for 1 h with two-fold dilutions of peptides (100 μM to 100 nM) in 96-well plates using 10 mM phosphate buffer, pH 7.2, as a diluent. Ten-fold dilutions of bacteria were performed to 1:1 000; a 100 μl aliquot from each condition was spread on the surface of tryptic soy agar plates (Difco, Detroit, Mich.) which were incubated overnight. Colonies of surviving bacteria (cfu, colony-forming units) were counted and compared to untreated controls to determine the amount of peptide-induced killing under each condition. Log killing is defined as the log of the ratio of cfu present before and after treatment with peptide. The minimal bactericidal concentration, MBC, is the peptide concentration at which 99.9% (three log) killing is achieved (Pearson et al., Antimicrob. Agents Chemother. 18: 699-708, 1980).
Results. Representative gram positive (S. aureus) and gram negative (P. aeruginosa) clinical isolates were used as the index bacteria to survey the peptides described herein.
A limitation of many host-derived antimicrobial peptides is their decreased activity at physiologic (150 mM) NaCl concentration. See Friedrich et al., Antimicrobial Agents and Chemotherapy 43:1542-1548. The peptides WLSA-5 (SEQ ID NO: 3) and LL37 were tested against the two index strains at physiologic NaCl. […] The activity of antimicrobial peptides described herein were compared to an expanded list of clinical bacterial isolates. These are summarized in Table 2 by comparing their MBCs in phosphate buffer alone (low salt) and phosphate buffer containing 150 mM NaCl (physiologic conditions). Inspection of this table would lead one skilled in the art to conclude that the activity of antimicrobial peptides described herein compare favorably to the host derived antimicrobial peptides as it relates to the spectrum and potency of antimicrobial activity.

[1] = system: Methicillin Resistant S. aureus; type: cell-based, Staphylococcus aureus; set-up: unit not given here; settings: 99.9% killing
P. aeruginosa = settings: intravenous administration; cited from earlier work
[2] = system: P. aeruginosa and primary human skin fibroblasts; settings: co-culture; cited from earlier work
C. albicans = test: In vitro fungal killing assay; settings: 6 μM, RPMI 1640, 37° C.; reference strain SC5314 and all clinical isolates
Indonesia H5N1 [3] = type: in vivo, mice; settings: peptide added to virus just prior to intranasal dose, FIG. 25
[4] = system: vaccine strain of B. anthracis; type: cell-based, Bacillus anthracis; settings: FIG. 26
Aspergillus fumigatus = test: In vitro fungal killing assay; settings: 2 isolates
Pseudomonas aeruginosa = test: Bacterial lysis (broth dilution) assay, MBC; type: cell-based; set-up: MBC, Psuedomonas aeruginosa, 0 mM NaCl / MBC, Psuedomonas aeruginosa, 150 mM NaCl: unit not given here; settings: 99.9% killing
Indonesia H5N1 [5] = type: cell-based, influenza virus; settings: eleven two-fold serial dilutions from 50 μM, FIG. 24
[6] = system: Cryptococcocus neoformans; test: In vitro fungal killing assay; settings: 3 isolates
[7] = 0 mM NaCl (10 mM phosphate buffer)

Sequence: RRWVRRVRRVWRRVVRVVRRWVRR [WLBU-2, RRWVRRVRRVWRRVVRVVRRWVRR]
- time to fully fungicidal effect, C. lusitaniae (C. lusitaniae): ≤ 5 min
- MBC, Staphylococcus aureus, 0 mM NaCl (Staphylococcus aureus; [7]): 1 µM
- MBC, Staphylococcus aureus, 150 mM NaCl (Staphylococcus aureus; 150 mM NaCl (physiologic)): 0.6 µM
- MBC, Methicillin Resistant S. aureus, 0 mM NaCl [1, 7]: 200
- MBC, Methicillin Resistant S. aureus, 150 mM NaCl ([1]; 150 mM NaCl (physiologic)): 100
- protection in murine model (P. aeruginosa): protection against a lethal challenge of P. aeruginosa
- antibacterial selectivity [2]: highest antibacterial selectivity of all peptides evaluated
- concentration that completely killed 75% of the isolates, C. tropicalis (C. tropicalis; RPMI 1640, 37° C.): 3 µM
- concentration that completely killed the remaining isolates, C. tropicalis (C. tropicalis; RPMI 1640, 37° C.): 25 µM
- minimum fungicidal concentration (MFC, >99.9% kill), C. tropicalis (C. tropicalis; remaining isolates): ≤ 6 µM
- time to fully fungicidal effect, C. albicans (C. albicans): ≤ 5 min
- infectivity of virus in mice (Indonesia H5N1 [3]): inactivate the infectivity of virus
- inhibition of vegetative form [4]: inhibit the vegetative form of B. anthracis
- concentration that completely killed 75% of the isolates, C. krusei (C. krusei; RPMI 1640, 37° C.): 3 µM
- concentration that completely killed the remaining isolates, C. krusei (C. krusei; RPMI 1640, 37° C.): 25 µM
- minimum fungicidal concentration (MFC, >99.9% kill), C. krusei (C. krusei; remaining isolates): ≤ 6 µM
- concentration to which A. fumigatus isolates were resistant (Aspergillus fumigatus): > 100 µM
- MBC, Psuedomonas aeruginosa, 0 mM NaCl (Pseudomonas aeruginosa; [7]): 200
- MBC, Psuedomonas aeruginosa, 150 mM NaCl (Pseudomonas aeruginosa; 150 mM NaCl (physiologic)): 100
- infectious virus plaque formation (Indonesia H5N1 [5]): dose-dependent decrease in infectious virus plaque formation
- concentration that completely killed C. neoformans [6]: 3 µM
